# Measured values taken from ChEMBL document CHEMBL3885861, “Open TG-GATES”.
# Organism: Rattus norvegicus
# Assay: Open TG-GATES - Regimen: Single
# Assay type: toxicity, organism-based, Sprague-Dawley
# Design: regimen Single, gender Male, age 6 weeks
# Conditions: in vivo, iv, 0 mg/kg, route intravenous injection, dose level Control; for APTT / Bas / Eos / Fbg / Hb / Ht / Lym / MCH / MCHC / MCV / Mono / Neu / PT / Plat / RBC / Ret / WBC: tissue Blood; for KIDNEY_L / KIDNEY_R / KIDNEY_TOTAL: tissue Kidney; for LIVER: tissue Liver; for A/G / ALP / ALT / AST / BUN / CRE / Ca / Cl / DBIL / GLC / IP / K / LDH / Na / PL / RALB / TBIL / TC / TG / TP / gamma-GTP: tissue Plasma
compound,measurement,setting,value
NCCBr [BROMOETHANAMINE],TERMINAL_BW,3 h,221.8 g
same,APTT,3 h,22.1 s
same,Bas,3 h,0%
same,Eos,3 h,0.6%
same,Fbg,3 h,305.4 mg/dL
same,Hb,3 h,13.4 g/dL
same,Ht,3 h,39.5%
same,Lym,3 h,82.4%
same,MCH,3 h,22.5 pg
same,MCHC,3 h,33.9%
same,MCV,3 h,66.4 fL
same,Mono,3 h,2.2%
same,Neu,3 h,14.2%
same,PT,3 h,16.2 s
same,Plat,3 h,118.2 x10_4/uL
same,RBC,3 h,594.4 x10_4/ul
same,Ret,3 h,6.3%
same,WBC,3 h,94.3 x10_2/uL
same,KIDNEY_L,3 h,1 g
same,KIDNEY_R,3 h,1 g
same,KIDNEY_TOTAL,3 h,2 g
same,LIVER,3 h,10.5 g
same,A/G,3 h,1.2
same,ALP,3 h,1743.8 IU/L
same,ALT,3 h,43.2 IU/L
same,AST,3 h,76.2 IU/L
same,BUN,3 h,13.2 mg/dL
same,CRE,3 h,0.1 mg/dL
same,Ca,3 h,10.8 mg/dL
same,Cl,3 h,105.4 meq/L
same,DBIL,3 h,0 mg/dL
same,GLC,3 h,188.4 mg/dL
same,IP,3 h,7.5 mg/dL
same,K,3 h,4.1 meq/L
same,LDH,3 h,174.6 IU/L
same,Na,3 h,142.2 meq/L
same,PL,3 h,131.8 mg/dL
same,RALB,3 h,3 g/dL
same,TBIL,3 h,0.018 mg/dL
same,TC,3 h,70.2 mg/dL
same,TG,3 h,79.8 mg/dL
same,TP,3 h,5.4 g/dL
same,gamma-GTP,3 h,1.6 IU/L
same,TERMINAL_BW,6 h,213.6 g
same,APTT,6 h,23.7 s
same,Bas,6 h,0%
same,Eos,6 h,0.8%
same,Fbg,6 h,313.6 mg/dL
same,Hb,6 h,13.5 g/dL
same,Ht,6 h,39.2%
same,Lym,6 h,80%
same,MCH,6 h,21.6 pg
same,MCHC,6 h,34.4%
same,MCV,6 h,62.7 fL
same,Mono,6 h,3%
same,Neu,6 h,15.8%
same,PT,6 h,15.8 s
same,Plat,6 h,121.6 x10_4/uL
same,RBC,6 h,624.8 x10_4/ul
same,Ret,6 h,6.1%
same,WBC,6 h,83.9 x10_2/uL
same,KIDNEY_L,6 h,0.9 g
same,KIDNEY_R,6 h,1 g
same,KIDNEY_TOTAL,6 h,1.9 g
same,LIVER,6 h,9.2 g
same,A/G,6 h,1.1
same,ALP,6 h,1411.4 IU/L
same,ALT,6 h,39 IU/L
same,AST,6 h,71.2 IU/L
same,BUN,6 h,11 mg/dL
same,CRE,6 h,0.1 mg/dL
same,Ca,6 h,10.3 mg/dL
same,Cl,6 h,104.6 meq/L
same,DBIL,6 h,0 mg/dL
same,GLC,6 h,195.8 mg/dL
same,IP,6 h,9.7 mg/dL
same,K,6 h,4.1 meq/L
same,LDH,6 h,189.6 IU/L
same,Na,6 h,141 meq/L
same,PL,6 h,145.2 mg/dL
same,RALB,6 h,2.9 g/dL
same,TBIL,6 h,0.014 mg/dL
same,TC,6 h,87.2 mg/dL
same,TG,6 h,47.8 mg/dL
same,TP,6 h,5.4 g/dL
same,gamma-GTP,6 h,1.6 IU/L
same,TERMINAL_BW,9 h,218.3 g
same,APTT,9 h,22.5 s
same,Bas,9 h,0%
same,Eos,9 h,0.8%
same,Fbg,9 h,317.8 mg/dL
same,Hb,9 h,13.3 g/dL
same,Ht,9 h,39%
same,Lym,9 h,78.6%
same,MCH,9 h,21.3 pg
same,MCHC,9 h,34%
same,MCV,9 h,62.7 fL
same,Mono,9 h,2%
same,Neu,9 h,18%
same,PT,9 h,16.3 s
same,Plat,9 h,128.4 x10_4/uL
same,RBC,9 h,623.8 x10_4/ul
same,Ret,9 h,6.4%
same,WBC,9 h,84.9 x10_2/uL
same,KIDNEY_L,9 h,0.9 g
same,KIDNEY_R,9 h,1 g
same,KIDNEY_TOTAL,9 h,1.9 g
same,LIVER,9 h,9.1 g
same,A/G,9 h,1.2
same,ALP,9 h,1721.2 IU/L
same,ALT,9 h,33.4 IU/L
same,AST,9 h,64.6 IU/L
same,BUN,9 h,13.6 mg/dL
same,CRE,9 h,0.2 mg/dL
same,Ca,9 h,10.4 mg/dL
same,Cl,9 h,106.4 meq/L
same,DBIL,9 h,0.002 mg/dL
same,GLC,9 h,188.8 mg/dL
same,IP,9 h,9.6 mg/dL
same,K,9 h,4.2 meq/L
same,LDH,9 h,152.6 IU/L
same,Na,9 h,140.6 meq/L
same,PL,9 h,124.4 mg/dL
same,RALB,9 h,2.9 g/dL
same,TBIL,9 h,0.022 mg/dL
same,TC,9 h,68.8 mg/dL
same,TG,9 h,63.4 mg/dL
same,TP,9 h,5.4 g/dL
same,gamma-GTP,9 h,1.6 IU/L
same,TERMINAL_BW,24 h,226.9 g
same,APTT,24 h,21.5 s
same,Bas,24 h,0%
same,Eos,24 h,0.8%
same,Fbg,24 h,316.6 mg/dL
same,Hb,24 h,13.6 g/dL
same,Ht,24 h,39.1%
same,Lym,24 h,79.2%
same,MCH,24 h,21.2 pg
same,MCHC,24 h,34.7%
same,MCV,24 h,61.1 fL
same,Mono,24 h,2.6%
same,Neu,24 h,16.2%
same,PT,24 h,16.4 s
same,Plat,24 h,126.9 x10_4/uL
same,RBC,24 h,640.8 x10_4/ul
same,Ret,24 h,5.5%
same,WBC,24 h,103.5 x10_2/uL
same,KIDNEY_L,24 h,1 g
same,KIDNEY_R,24 h,1 g
same,KIDNEY_TOTAL,24 h,2 g
same,LIVER,24 h,10.4 g
same,A/G,24 h,1.1
same,ALP,24 h,1595.2 IU/L
same,ALT,24 h,41.4 IU/L
same,AST,24 h,71 IU/L
same,BUN,24 h,18 mg/dL
same,CRE,24 h,0.2 mg/dL
same,Ca,24 h,10.8 mg/dL
same,Cl,24 h,106 meq/L
same,DBIL,24 h,0 mg/dL
same,GLC,24 h,191.6 mg/dL
same,IP,24 h,6.8 mg/dL
same,K,24 h,4.9 meq/L
same,LDH,24 h,222.8 IU/L
same,Na,24 h,140.6 meq/L
same,PL,24 h,147.6 mg/dL
same,RALB,24 h,2.9 g/dL
same,TBIL,24 h,0.006 mg/dL
same,TC,24 h,75.8 mg/dL
same,TG,24 h,134.2 mg/dL
same,TP,24 h,5.5 g/dL
same,gamma-GTP,24 h,2 IU/L
